Test results from patent US20070166547A1, “Use of a layer consisting of hydrophobic linear, or two-dimensional polycyclic aromatics as a barrier layer or an encapsulation and electric components constructed with a layer of this type and comprising organic polymers” (priority 2003, published 2007).
Where two headings read alike, the source gives them in different places.

What was measured:
[1] = Polarographic study of electrochemical reduction (electrochemical activity); assay type: physicochemical; conditions: for number of electrons participating in the reduction: calculated with the Geirovsky-Ilkovich equation; for i, mkA (polarographic wave current) / −E1/2, V (half-wave potential vs SCE): 37° C., forward trace, average for the group; for i, mkA (polarographic wave current): 9·10^−4 M; for half-wave potential more positive on reverse stroke than on forward stroke: reverse stroke vs forward stroke
How it was run: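 DC polarography at 37 °C on a dropping mercury electrode (0.5 s drop) against SCE with a Pt auxiliary electrode. Compounds at 9·10^−4 M in N2-purged 2.0% NaCl at pH 7.0–7.6, scanned 0 to −0.5 V at 10.0 mV/s. E1/2 and ilim were determined graphically; electron number was derived by Heyrovsky–Ilkovič analysis.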

[2] = system: aggregation of thrombocytes; assay: ADP-induced aggregation of thrombocytes after intravenous administration (in vivo); design: species or system rabbit
Description: The experiments were carried out on male rabbits of the “Chinchilla” breed having a mass of 2.7±0.3 kg. 18-24 hours prior to the experiment they were deprived of feed while preserving free access to water.
To obtain plasma enriched with thrombocytes, blood was taken from a cut of a marginal vein of the rabbit ear, the sample was stabilized with 3.8% of sodium citrate solution in a ratio of 9:1 and centrifuged at 200 g (1000 rev/min) for 10 minutes. The top supernatant layer enriched with thrombocytes was transferred by an automatic dropper into a silicone test tube and kept at 37° C. The plasma enriched with thrombocytes contained, on the average, […]. If this content exceeded the specified 3×10^8 blood platelets in 1 liter, this sample was diluted to the necessary concentration with plasma deprived of thrombocytes, which was obtained by centrifuging blood at 650 g during 10 minutes.
The measurements of the optical density of the samples were made on two-channel aggregometer of the “Chronolog” Company (USA). A flask containing 490 mkl of plasma rich with thrombocytes was placed in a device, into which a magnetic agitator covered with Teflon was lowered. The index of maximum amplitude of aggregation (MA) in percent of a fall of the plasma optical density under effect of the aggregation inductor was recorded. The control index MA of plasma was compared with the MA of plasma incubated for 3 minutes with different concentrations of the compounds: from 10^−3 to 10^−7 in vitro experiments or with plasma obtained 15, 30, 60 and 120 minutes after intravenous administration of different doses of the compounds in vivo experiments.
The process of aggregation of thrombocytes was recorded with the help of a computer; on the monitor screen the there were depicted curves reflecting changes of the optical density of the plasma enriched which was taken as a standard 100% compared to the optical density of the non-thrombocyte plasma taken for 0% content of thrombocytes.
The antiaggregative capability of compounds 2, 15, 21, 37, according to the invention was tested in experiments in vivo. Introduced to the test animals intravenously were an aggregation inductor ADP at a concentration of 10^−5 M was and then the compounds according to the invention. The doses of the compounds were in a range from 15 to 60 mg/kg.
For leveling the different effects of the compounds in different days due the ambient temperature, humidity and other parameters, 2 animals of each series were taken for experiments every day. Under “series” there is understood a group of 6 animals used for studying one of the doses of the compounds.
The blood for obtaining plasma enriched with thrombocytes was taken from marginal vein of the rabbit ear: in the control group—directly before introducing the tested compounds; in investigated groups—15 minutes after introducing these compounds and then after 30, 60, 120 minutes and so on up to the moment when the effect of suppression of aggregation disappeared.
The quantity of thrombocytes was counted before the experiment and at the end thereof in each plasma sample.

[3] = rat, in vivo
Description: The experiments were conducted on inbred rats. The experimental animals were selected in groups by a method of random sampling taking into account the body mass as a determining index; 24 males or 24 females for one preparation from compounds 2, 15, 23, 34, 37 investigated in one dose.
Two doses of preparations used in the experiments: 50 mg/kg and 500 mg/kg. Before the administration, the suppositories were softened by heating in a glass water bath at a temperature of 38-39° C., the soft mass was collected in tuberculin syringe in a volume of 1 ml, a needle with oliva was attached to the syringe, and the preparatory mass was introduced into the rectum of the animal for a depth of 1.5-2.0 cm. The animals of the control group were administered with sterile medical liquid paraffin in a volume corresponding to the volume of the investigated suppository. A complete course of administration of drugs to the animals was two months. A complex of laboratory diagnostic investigations was carried out one month after the beginning of the administration of the preparation to the animal—in a middle of the course (8 animals), two months after ending the course (8 animals) and three months after ending the recovery period of one month (8 animals). The mass of the body of the rats in the first month of administration of the preparation was determined weekly, and then once in two weeks. On the basis of the dynamics of an index of the mass of the animal body, the volume of preparation being administered was corrected taking into account the test dose.

| SMILES | number of electrons participating in the reduction [1] | i, mkA (polarographic wave current) ([1]; pH 7.0) [mkA] | −E1/2, V (half-wave potential vs SCE) ([1]; pH 7.0) [V] | i, mkA (polarographic wave current) ([1]; pH 7.2) [mkA] | i, mkA (polarographic wave current) ([1]; pH 7.4) [mkA] | −E1/2, V (half-wave potential vs SCE) ([1]; pH 7.4) [V] | i, mkA (polarographic wave current) ([1]; pH 7.6) [mkA] | −E1/2, V (half-wave potential vs SCE) ([1]; pH 7.6) [V] | MA, %, After 15 minutes ([2]; dose 15.0 mg/kg intravenously) [%] | MA, %, After 30 minutes ([2]; dose 15.0 mg/kg intravenously) [%] | MA, %, After 60 minutes ([2]; dose 15.0 mg/kg intravenously) [%] | MA, %, After 120 minutes ([2]; dose 15.0 mg/kg intravenously) [%] | MA, %, After 15 minutes ([2]; dose 30.0 mg/kg intravenously) [%] | MA, %, After 30 minutes ([2]; dose 30.0 mg/kg intravenously) [%] | MA, %, After 60 minutes ([2]; dose 30.0 mg/kg intravenously) [%] | MA, %, After 120 minutes ([2]; dose 30.0 mg/kg intravenously) [%] | MA, %, After 15 minutes ([2]; dose 60.0 mg/kg intravenously) [%] | MA, %, After 30 minutes ([2]; dose 60.0 mg/kg intravenously) [%] | MA, %, After 60 minutes ([2]; dose 60.0 mg/kg intravenously) [%] | MA, %, After 120 minutes ([2]; dose 60.0 mg/kg intravenously) [%] | other results |
| --- | --- | --- | --- | --- | --- | --- | --- | --- | --- | --- | --- | --- | --- | --- | --- | --- | --- | --- | --- | --- | --- |
| O=c1[nH][nH]c(=O)c2nccnc12.[Li] [Compound 25, lithium salt of pyrazine[2,3-d]-6H-pyridazine-5,8-dione] | 3.72 | 0.32 ± 0.03 | 0.16 ± 0.02 | 0.33 ± 0.04 | 0.34 ± 0.03 | 0.175 ± 0.01 | 0.34 ± 0.02 | 0.16 ± 0.015 | – | – | – | – | – | – | – | – | – | – | – | – | −E1/2, V (half-wave potential vs SCE) ([1]; pH 7.2): 0.19 ± 0.02 V; half-wave potential more positive on reverse stroke than on forward stroke [1]: 20.0 mV |
| Nc1cccc2c(=O)[nH][nH]c(=O)c12.[Na] [Compound 15, sodium salt of 5-amino-benzo[d]-3H-pyridazine-1,4-dione] | 4.09 | 0.23 ± 0.03 | 0.092 ± 0.02 | 0.30 ± 0.01 | 0.29 ± 0.02 | 0.092 ± 0.02 | 0.31 ± 0.02 | 0.09 ± 0.01 | 42.8 ± 1.8 | 41.8 ± 1.5 | 45.6 ± 1.5 | 48.3 ± 2.3 | 43.2 ± 2.2 | 41.8 ± 1.9 | 37.8 ± 1.8 | 58.1 ± 1.7 | 43.1 ± 1.5 | 41.3 ± 1.5 | 44.7 ± 0.8 | 47.2 ± 1.6 | −E1/2, V (half-wave potential vs SCE) ([1]; pH 7.2): 0.09 ± 0.01 V; half-wave potential more positive on reverse stroke than on forward stroke [1]: 30.0 mV; Bilirubin (index of urine) ([3]; 50 mg/kg): <5 Mkmol/l; Glucose (index of urine) ([3]; 50 mg/kg): <6 mmol/L; Ketone bodies (index of urine) ([3]; 50 mg/kg): <1 mmol/L; Potassium (index of urine) ([3]; 50 mg/kg): 5.28 ± 1.5 g/L; Protein (index of urine) ([3]; 50 mg/kg): 0.71 ± 0.274 g/L; Sodium (index of urine) ([3]; 50 mg/kg): 1.2 ± 0.4 g/L; Urea (index of urine) ([3]; 50 mg/kg): 413 ± 128 mmol/L; Urobilinogen (index of urine) ([3]; 50 mg/kg): <17 Mkmol/l; pH (index of urine) ([3]; 50 mg/kg): 6.3 ± 0.4; Bilirubin (index of urine) ([3]; 500 mg/kg): <5 Mkmol/l; Glucose (index of urine) ([3]; 500 mg/kg): <6 mmol/L; Ketone bodies (index of urine) ([3]; 500 mg/kg): <1 mmol/L; Potassium (index of urine) ([3]; 500 mg/kg): 6.13 ± 1.6 g/L; Protein (index of urine) ([3]; 500 mg/kg): 0.87 ± 0.24 g/L; Sodium (index of urine) ([3]; 500 mg/kg): 0.64 ± 0.4 g/L; Urea (index of urine) ([3]; 500 mg/kg): 485 ± 131 mmol/L; Urobilinogen (index of urine) ([3]; 500 mg/kg): <17 Mkmol/l; pH (index of urine) ([3]; 500 mg/kg): 6.2 ± 0.3 |
| Nc1ccnc2c(=O)n([C@@H]3O[C@H](CO)[C@@H](O)[C@H]3O)[nH]c(=O)c12 [Compound 2, 4-amino-7-(β-D-ribofuranosile)pyrido[2,3-d]-6H-pyridazine-5,8-dione] | – | – | – | – | – | – | – | – | 44.2 ± 2.0 | 42.2 ± 1.6 | 46.9 ± 1.7 | 49.2 ± 2.0 | 45.3 ± 2.0 | 43.7 ± 1.7 | 40.1 ± 2.2 | 59.7 ± 2.2 | 45.2 ± 1.2 | 43.6 ± 2.0 | 47.8 ± 1.5 | 48.0 ± 1.2 | – |
| Nc1ncc2c(=O)[nH][nH]c(=O)c2n1 [Compound 36, 2-amino-pyrimido[4,5-d]-6H-pyridazine-5,8-dione] | 3.5 | 0.30 ± 0.05 | 0.08 ± 0.02 | 0.26 ± 0.02 | 0.30 ± 0.03 | 0.085 ± 0.02 | 0.30 ± 0.02 | 0.09 ± 0.02 | – | – | – | – | – | – | – | – | – | – | – | – | – |
| O=c1[nH][nH]c(=O)c2c(Br)ncnc12.[K] [Compound 37, potassium salt of 4-bromine-pyrimido[4,5-D]-6H-pyridazine-5,8-dione] | – | – | – | – | – | – | – | – | 42.9 ± 1.6 | 41.9 ± 1.6 | 45.9 ± 1.6 | 48.7 ± 2.1 | 43.5 ± 2.0 | 42.0 ± 1.4 | 41.6 ± 1.4 | 58.4 ± 1.7 | 43.4 ± 1.8 | 42.4 ± 0.7 | 46.2 ± 2.0 | 47.3 ± 1.7 | Bilirubin (index of urine) ([3]; 50 mg/kg): <5 Mkmol/l; Glucose (index of urine) ([3]; 50 mg/kg): <5 mmol/L; Ketone bodies (index of urine) ([3]; 50 mg/kg): <1 mmol/L; Potassium (index of urine) ([3]; 50 mg/kg): 6.12 ± 1.4 g/L; Protein (index of urine) ([3]; 50 mg/kg): 0.70 ± 0.19 g/L; Sodium (index of urine) ([3]; 50 mg/kg): 1.4 ± 0.2 g/L; Urea (index of urine) ([3]; 50 mg/kg): 427 ± 137 mmol/L; Urobilinogen (index of urine) ([3]; 50 mg/kg): <15 Mkmol/l; pH (index of urine) ([3]; 50 mg/kg): 6.4 ± 0.4; Bilirubin (index of urine) ([3]; 500 mg/kg): <5 Mkmol/l; Glucose (index of urine) ([3]; 500 mg/kg): <5 mmol/L; Ketone bodies (index of urine) ([3]; 500 mg/kg): <1 mmol/L; Potassium (index of urine) ([3]; 500 mg/kg): 6.44 ± 1.3 g/L; Protein (index of urine) ([3]; 500 mg/kg): 0.72 ± 0.14 g/L; Sodium (index of urine) ([3]; 500 mg/kg): 0.88 ± 0.4 g/L; Urea (index of urine) ([3]; 500 mg/kg): 489 ± 152 mmol/L; Urobilinogen (index of urine) ([3]; 500 mg/kg): <15 Mkmol/l; pH (index of urine) ([3]; 500 mg/kg): 6.2 ± 0.3 |
| Nc1cnc2c(=O)n([C@@H]3O[C@H](CO)[C@@H](O)[C@H]3O)[nH]c(=O)c2n1.[Na] [Compound 21, sodium salt of 3-amino-7-(β-D-ribofuranosile)pyrazine[2,3-d]-6H-pyridazine-5,8-dione] | – | – | – | – | – | – | – | – | 43.5 ± 1.7 | 43.3 ± 1.7 | 46.7 ± 1.5 | 49.1 ± 1.7 | 46.7 ± 1.9 | 45.4 ± 1.8 | 45.0 ± 1.9 | 60.3 ± 2.1 | 45.1 ± 0.9 | 43.2 ± 2.0 | 47.3 ± 1.6 | 48.3 ± 1.5 | – |
| O=c1[nH]n([C@@H]2O[C@H](CO)[C@@H](O)[C@H]2O)c(=O)c2nc(O)cnc12.[Na].[Na] [Compound 23, disodium salt of 2-hydroxy-7-(β-D-ribofuranosile)pyrazine[2,3-Cl]-6H-pyridazine-5,8-dione] | 3.72 | 0.32 ± 0.03 | 0.16 ± 0.02 | 0.33 ± 0.04 | 0.34 ± 0.03 | 0.175 ± 0.01 | 0.34 ± 0.02 | 0.16 ± 0.015 | – | – | – | – | – | – | – | – | – | – | – | – | −E1/2, V (half-wave potential vs SCE) ([1]; pH 7.2): 0.19 ± 0.02 V; half-wave potential more positive on reverse stroke than on forward stroke [1]: 20.0 mV |
